Assay results from ChEMBL document CHEMBL2177000, “Pharmacokinetic optimization of class-selective histone deacetylase inhibitors and identification of associated candidate predictive biomarkers of hepatocellular carcinoma tumor response” (J Med Chem, 2012).

Columns and labels:
[1] = molecular target: Histone deacetylase 3 (Homo sapiens, UniProt O15379); test: Inhibition of HDAC3 using p53 (379 to 382 residues) based fluorogenic peptide substrate
[2] = molecular target: T1, Histone deacetylase 8 (Homo sapiens, UniProt Q9BY41); test: Inhibition of HDAC8 using p53 (379 to 382 residues) based fluorogenic peptide substrate
T1 sequence (Q9BY41 whole entry): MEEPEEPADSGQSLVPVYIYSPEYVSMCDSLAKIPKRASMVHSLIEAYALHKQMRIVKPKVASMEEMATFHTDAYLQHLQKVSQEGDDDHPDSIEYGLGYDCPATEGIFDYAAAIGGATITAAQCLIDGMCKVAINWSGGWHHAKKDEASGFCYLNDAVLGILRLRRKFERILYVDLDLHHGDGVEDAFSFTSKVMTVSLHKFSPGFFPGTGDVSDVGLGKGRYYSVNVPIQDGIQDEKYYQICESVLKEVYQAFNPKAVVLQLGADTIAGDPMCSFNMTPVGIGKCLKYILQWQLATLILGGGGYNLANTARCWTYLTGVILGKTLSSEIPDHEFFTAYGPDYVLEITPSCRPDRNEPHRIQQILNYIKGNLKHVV

[3] = molecular target: Cytochrome P450 2C9 (Homo sapiens, UniProt P11712); test: Inhibition of CYP2C9 in human liver microsomes in presence of NADPH by LC-MS/MS method; type: ADME, Microsome
[4] = molecular target: Histone deacetylase 5 (Homo sapiens, UniProt Q9UQL6); test: Inhibition of HDAC5 using p53 (379 to 382 residues) based fluorogenic peptide substrate
[5] = molecular target: Histone deacetylase 2 (Homo sapiens, UniProt Q92769); test: Inhibition of HDAC2 using p53 (379 to 382 residues) based fluorogenic peptide substrate
[6] = molecular target: Cytochrome P450 3A4 (Homo sapiens, UniProt P08684); test: Inhibition of CYP3A4 in human liver microsomes in presence of NADPH by LC-MS/MS method; type: ADME, Microsome
[7] = molecular target: Histone deacetylase 1 (Homo sapiens, UniProt Q13547); test: Inhibition of HDAC1 using p53 (379 to 382 residues) based fluorogenic peptide substrate
[8] = molecular target: T2, Histone deacetylase 7 (Homo sapiens, UniProt Q8WUI4); test: Inhibition of HDAC7 using p53 (379 to 382 residues) based fluorogenic peptide substrate
T2 sequence (Q8WUI4 whole entry): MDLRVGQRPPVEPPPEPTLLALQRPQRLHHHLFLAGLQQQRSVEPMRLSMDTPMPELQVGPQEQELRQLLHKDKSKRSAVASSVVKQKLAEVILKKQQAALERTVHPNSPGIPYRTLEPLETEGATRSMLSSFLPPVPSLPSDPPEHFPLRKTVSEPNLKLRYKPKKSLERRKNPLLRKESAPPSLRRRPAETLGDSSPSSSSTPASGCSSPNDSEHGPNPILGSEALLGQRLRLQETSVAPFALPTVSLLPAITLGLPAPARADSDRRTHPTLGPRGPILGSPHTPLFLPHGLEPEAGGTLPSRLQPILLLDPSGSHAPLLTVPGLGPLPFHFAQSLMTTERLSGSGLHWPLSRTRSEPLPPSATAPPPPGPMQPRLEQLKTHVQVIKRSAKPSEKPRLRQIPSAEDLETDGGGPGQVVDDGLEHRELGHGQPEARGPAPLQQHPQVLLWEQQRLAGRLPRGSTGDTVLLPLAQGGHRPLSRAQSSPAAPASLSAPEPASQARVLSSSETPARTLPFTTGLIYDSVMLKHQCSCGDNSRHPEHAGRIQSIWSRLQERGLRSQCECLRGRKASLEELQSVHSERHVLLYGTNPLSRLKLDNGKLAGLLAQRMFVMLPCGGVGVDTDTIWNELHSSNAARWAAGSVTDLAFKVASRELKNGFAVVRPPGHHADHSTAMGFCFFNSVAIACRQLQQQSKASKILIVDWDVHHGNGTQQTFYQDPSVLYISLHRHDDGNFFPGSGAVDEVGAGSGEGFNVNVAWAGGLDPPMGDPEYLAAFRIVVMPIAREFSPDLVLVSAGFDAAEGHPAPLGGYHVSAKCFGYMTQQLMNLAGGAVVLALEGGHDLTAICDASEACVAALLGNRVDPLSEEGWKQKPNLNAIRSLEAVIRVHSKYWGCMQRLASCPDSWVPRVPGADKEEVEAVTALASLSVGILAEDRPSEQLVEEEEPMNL

[9] = molecular target: T3, Cytochrome P450 1A2 (Homo sapiens, UniProt P05177); test: Inhibition of CYP1A2 in human liver microsomes in presence of NADPH by LC-MS/MS method; type: ADME, Microsome
T3 sequence (P05177 whole entry): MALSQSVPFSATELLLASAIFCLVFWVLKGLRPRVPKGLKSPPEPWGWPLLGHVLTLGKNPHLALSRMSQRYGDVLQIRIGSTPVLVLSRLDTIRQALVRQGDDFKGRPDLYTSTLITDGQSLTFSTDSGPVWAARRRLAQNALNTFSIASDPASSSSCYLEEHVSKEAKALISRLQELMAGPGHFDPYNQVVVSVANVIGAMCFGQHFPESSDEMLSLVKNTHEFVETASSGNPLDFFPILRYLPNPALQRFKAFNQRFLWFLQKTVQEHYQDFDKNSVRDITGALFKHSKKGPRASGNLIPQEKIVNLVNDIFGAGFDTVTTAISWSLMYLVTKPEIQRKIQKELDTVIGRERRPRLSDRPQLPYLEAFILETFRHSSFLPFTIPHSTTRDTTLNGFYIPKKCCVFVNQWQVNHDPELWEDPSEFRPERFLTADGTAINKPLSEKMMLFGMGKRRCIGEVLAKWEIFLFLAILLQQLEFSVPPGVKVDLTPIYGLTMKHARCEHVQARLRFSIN

Histone deacetylase 3, sequence (O15379 whole entry, the tested form may be a part): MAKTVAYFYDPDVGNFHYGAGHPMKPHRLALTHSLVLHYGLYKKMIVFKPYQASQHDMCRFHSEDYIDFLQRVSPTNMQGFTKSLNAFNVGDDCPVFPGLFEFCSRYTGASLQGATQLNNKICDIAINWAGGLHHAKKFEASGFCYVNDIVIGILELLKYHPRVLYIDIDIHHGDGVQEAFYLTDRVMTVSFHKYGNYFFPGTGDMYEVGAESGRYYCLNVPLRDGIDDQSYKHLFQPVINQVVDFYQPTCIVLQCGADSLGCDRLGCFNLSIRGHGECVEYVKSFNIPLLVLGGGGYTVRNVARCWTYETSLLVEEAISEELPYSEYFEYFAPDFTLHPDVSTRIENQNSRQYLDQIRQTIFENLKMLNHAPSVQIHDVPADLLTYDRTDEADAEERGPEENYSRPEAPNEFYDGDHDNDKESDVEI
Histone deacetylase 2, sequence (Q92769 whole entry, the tested form may be a part): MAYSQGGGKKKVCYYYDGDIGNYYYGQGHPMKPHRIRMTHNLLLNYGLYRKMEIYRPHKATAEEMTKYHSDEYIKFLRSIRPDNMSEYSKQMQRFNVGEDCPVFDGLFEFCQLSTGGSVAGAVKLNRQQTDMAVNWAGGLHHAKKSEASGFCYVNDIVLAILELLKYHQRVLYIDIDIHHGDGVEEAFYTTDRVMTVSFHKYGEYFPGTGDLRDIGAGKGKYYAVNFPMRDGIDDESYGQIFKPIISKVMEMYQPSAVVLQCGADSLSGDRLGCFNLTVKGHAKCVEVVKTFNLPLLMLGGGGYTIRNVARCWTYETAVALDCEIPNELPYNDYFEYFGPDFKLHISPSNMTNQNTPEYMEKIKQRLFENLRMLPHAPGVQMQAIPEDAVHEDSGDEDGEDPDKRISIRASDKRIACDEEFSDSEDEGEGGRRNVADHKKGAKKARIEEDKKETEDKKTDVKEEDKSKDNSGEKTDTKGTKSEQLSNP
Cytochrome P450 2C9, sequence (P11712 whole entry, the tested form may be a part): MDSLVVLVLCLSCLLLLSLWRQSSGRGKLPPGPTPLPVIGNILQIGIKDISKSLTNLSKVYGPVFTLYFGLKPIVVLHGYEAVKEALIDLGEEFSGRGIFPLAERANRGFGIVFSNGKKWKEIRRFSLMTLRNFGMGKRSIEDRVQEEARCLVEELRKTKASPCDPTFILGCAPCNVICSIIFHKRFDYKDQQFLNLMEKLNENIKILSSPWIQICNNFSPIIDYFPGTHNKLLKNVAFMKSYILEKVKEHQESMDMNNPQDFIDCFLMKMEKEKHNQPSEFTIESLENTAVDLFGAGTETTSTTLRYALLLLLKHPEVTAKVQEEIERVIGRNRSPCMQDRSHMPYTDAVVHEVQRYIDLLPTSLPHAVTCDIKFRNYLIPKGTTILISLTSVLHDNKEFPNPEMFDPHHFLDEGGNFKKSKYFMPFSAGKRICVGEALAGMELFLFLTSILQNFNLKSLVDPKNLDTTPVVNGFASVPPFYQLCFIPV
Histone deacetylase 1, sequence (Q13547 whole entry, the tested form may be a part): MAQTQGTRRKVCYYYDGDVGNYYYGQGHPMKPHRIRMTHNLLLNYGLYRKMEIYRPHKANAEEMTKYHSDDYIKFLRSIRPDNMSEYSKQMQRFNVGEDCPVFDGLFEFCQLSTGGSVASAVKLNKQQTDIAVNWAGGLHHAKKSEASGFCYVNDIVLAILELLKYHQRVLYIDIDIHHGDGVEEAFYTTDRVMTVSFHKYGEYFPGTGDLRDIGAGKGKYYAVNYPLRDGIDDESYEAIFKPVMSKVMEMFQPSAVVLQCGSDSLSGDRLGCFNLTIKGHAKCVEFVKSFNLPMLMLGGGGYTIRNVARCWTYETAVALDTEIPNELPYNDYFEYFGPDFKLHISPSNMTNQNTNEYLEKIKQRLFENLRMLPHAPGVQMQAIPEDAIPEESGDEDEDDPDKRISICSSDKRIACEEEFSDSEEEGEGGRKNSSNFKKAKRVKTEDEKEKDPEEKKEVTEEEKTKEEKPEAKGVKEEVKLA
Histone deacetylase 5, sequence (Q9UQL6 whole entry, the tested form may be a part): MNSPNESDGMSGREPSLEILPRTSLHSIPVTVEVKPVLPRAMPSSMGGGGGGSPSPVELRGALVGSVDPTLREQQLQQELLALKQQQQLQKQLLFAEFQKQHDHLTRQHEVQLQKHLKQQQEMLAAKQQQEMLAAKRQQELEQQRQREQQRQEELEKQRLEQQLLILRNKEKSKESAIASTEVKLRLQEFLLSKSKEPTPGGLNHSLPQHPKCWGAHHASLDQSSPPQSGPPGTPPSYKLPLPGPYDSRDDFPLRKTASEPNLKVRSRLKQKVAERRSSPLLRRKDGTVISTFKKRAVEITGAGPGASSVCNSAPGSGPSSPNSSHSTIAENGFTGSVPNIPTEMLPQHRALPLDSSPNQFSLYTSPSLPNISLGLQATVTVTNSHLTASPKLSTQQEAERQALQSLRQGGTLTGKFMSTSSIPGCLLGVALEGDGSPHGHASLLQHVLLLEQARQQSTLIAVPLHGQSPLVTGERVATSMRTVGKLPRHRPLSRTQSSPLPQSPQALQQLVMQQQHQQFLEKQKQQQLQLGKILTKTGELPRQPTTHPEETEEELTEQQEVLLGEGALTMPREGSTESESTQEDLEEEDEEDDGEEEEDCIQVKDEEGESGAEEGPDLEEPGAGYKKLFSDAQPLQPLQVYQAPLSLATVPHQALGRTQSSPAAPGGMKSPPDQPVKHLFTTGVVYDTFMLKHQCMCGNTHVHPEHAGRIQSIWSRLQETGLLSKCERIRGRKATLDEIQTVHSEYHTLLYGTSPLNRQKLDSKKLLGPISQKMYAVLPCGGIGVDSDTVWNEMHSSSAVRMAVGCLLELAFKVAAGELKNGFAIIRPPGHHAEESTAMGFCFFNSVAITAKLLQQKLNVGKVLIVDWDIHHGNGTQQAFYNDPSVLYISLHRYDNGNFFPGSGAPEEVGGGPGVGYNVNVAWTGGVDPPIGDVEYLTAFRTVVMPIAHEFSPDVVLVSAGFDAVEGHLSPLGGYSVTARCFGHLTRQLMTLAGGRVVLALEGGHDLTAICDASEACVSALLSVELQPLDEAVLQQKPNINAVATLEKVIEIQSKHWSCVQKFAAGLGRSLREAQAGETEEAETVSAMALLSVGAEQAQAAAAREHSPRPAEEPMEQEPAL
Cytochrome P450 3A4, sequence (P08684 whole entry, the tested form may be a part): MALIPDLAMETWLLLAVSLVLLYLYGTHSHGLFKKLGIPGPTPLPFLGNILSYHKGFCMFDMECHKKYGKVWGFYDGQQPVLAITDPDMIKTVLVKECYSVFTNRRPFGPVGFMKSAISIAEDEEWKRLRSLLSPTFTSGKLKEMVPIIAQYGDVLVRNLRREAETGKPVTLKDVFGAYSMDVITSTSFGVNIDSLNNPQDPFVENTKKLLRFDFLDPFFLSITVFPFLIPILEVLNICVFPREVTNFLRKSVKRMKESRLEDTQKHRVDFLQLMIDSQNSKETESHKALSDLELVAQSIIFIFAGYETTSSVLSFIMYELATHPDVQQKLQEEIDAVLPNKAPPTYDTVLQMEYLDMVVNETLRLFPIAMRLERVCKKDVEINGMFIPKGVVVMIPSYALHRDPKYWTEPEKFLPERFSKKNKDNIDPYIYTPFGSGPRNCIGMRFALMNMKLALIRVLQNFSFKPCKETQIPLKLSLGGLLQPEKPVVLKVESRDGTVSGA

Row | SMILES | IC50 [1] [µM] | IC50 [2] [µM] | IC50 [3] [µM] | IC50 [4] [µM] | IC50 [5] [µM] | IC50 [6] [µM] | IC50 [7] [µM] | IC50 [8] [µM] | IC50 [9] [µM]
1 | CN1C[C@H](C(=O)Nc2ccc(Cl)cc2)[C@@H](c2ccc(/C=C/C(=O)Nc3ccccc3N)cc2)C1 | 0.23 | > 30 | 29 | 3.5 | 0.25 | 14 | 0.06 | > 30 | 42
2 | CN1C[C@H](C(=O)Nc2ccc(Cl)cc2)[C@@H](c2ccc(/C=C/C(=O)Nc3ccccc3N)cc2F)C1 (racemic) | 0.23 | > 30 | 13 | 5.3 | 0.22 | 4 | 0.1 | > 30 | 28
3 | CN1C[C@@H](C(=O)Nc2ccc(Cl)cc2)[C@H](c2ccc(/C=C/C(=O)Nc3ccccc3N)cc2)C1 | 0.2 | > 30 | 23 | 1.1 | 0.27 | 21 | 0.14 | > 30 | 50
